Assay results as given in PubChem BioAssay AID1259407 (Chemical Carcinogenesis Research Information System (CCRIS), 2018).
The source made the active and inactive calls. How the calls were made is not given here.

Test system: CCRIS mutagenicity, Ames/micronucleus/aberration tests
Assay: CCRIS mutagenicity studies
Details: Test System: AMES SALMONELLA TYPHIMURIUM
[1] = Strain/Indicator: TA98, Metabolic Activation: NONE, Method: PREINCUBATION
[2] = Strain/Indicator: TA98, Metabolic Activation: NONE, Method: STANDARD PLATE
[3] = Strain/Indicator: TA100, Metabolic Activation: NONE, Method: PREINCUBATION
[4] = Strain/Indicator: TA98, Metabolic Activation: RAT, LIVER, S-9, AROCLOR 1254, Method: PREINCUBATION
[5] = Strain/Indicator: TA100, Metabolic Activation: RAT, LIVER, S-9, AROCLOR 1254, Method: PREINCUBATION

## O=[N+]([O-])c1cc2ccc3cccc4ccc(c1)c2c34
Strain/Indicator: TA96, Metabolic Activation: NONE, Method: STANDARD PLATE
  mutagenic call: active; positive
Strain/Indicator: TA97, Metabolic Activation: NONE, Method: STANDARD PLATE
  mutagenic call: active; positive
Strain/Indicator: TA98(1,8-DNP6), Metabolic Activation: NONE
  mutagenic call: active; positive
Strain/Indicator: TA98(1,8-DNP6), Metabolic Activation: NONE, Method: STANDARD PLATE
  mutagenic call: active; positive
Strain/Indicator: TA98(1,8-DNP6), Metabolic Activation: RAT, LIVER, S-9, AROCLOR 1254
  mutagenic call: inactive; negative
Strain/Indicator: TA98(NR), Metabolic Activation: NONE
  mutagenic call: active; positive
Strain/Indicator: TA98(NR), Metabolic Activation: NONE, Method: STANDARD PLATE
  mutagenic call: active; positive
Strain/Indicator: TA98(NR), Metabolic Activation: RAT, LIVER, S-9, AROCLOR 1254
  mutagenic call: active; positive
Strain/Indicator: TA98, Metabolic Activation: NONE
  mutagenic call: active; positive
[1]
  mutagenic call: active; positive
[2]
  mutagenic call: active; positive
Strain/Indicator: TA98, Metabolic Activation: RAT, LIVER, S-9, AROCLOR 1254
  mutagenic call: active; positive
Strain/Indicator: TA98, Metabolic Activation: RAT, LIVER, S-9, PCB (10%), Method: PREINCUBATION
  mutagenic call: inactive; negative
Strain/Indicator: TA100(NR), Metabolic Activation: NONE
  mutagenic call: inactive; negative
Strain/Indicator: TA100(NR), Metabolic Activation: NONE, Method: STANDARD PLATE
  mutagenic call: inactive; negative
Strain/Indicator: TA100(NR), Metabolic Activation: RAT, LIVER, S-9, AROCLOR 1254
  mutagenic call: active; positive
Strain/Indicator: TA100, Metabolic Activation: NONE
  mutagenic call: active; positive
Strain/Indicator: TA100, Metabolic Activation: NONE, Method: STANDARD PLATE
  mutagenic call: active; positive
Strain/Indicator: TA100, Metabolic Activation: RAT, LIVER, S-9, AROCLOR 1254
  mutagenic call: active; positive
Strain/Indicator: TA102, Metabolic Activation: NONE, Method: STANDARD PLATE
  mutagenic call: inactive; negative
Strain/Indicator: TA104, Metabolic Activation: NONE
  mutagenic call: active; positive
Strain/Indicator: TA104, Metabolic Activation: NONE, Method: STANDARD PLATE
  mutagenic call: active; positive
Strain/Indicator: TA104, Metabolic Activation: RAT, LIVER, S-9, AROCLOR 1254
  mutagenic call: active; positive
Strain/Indicator: TA1535, Metabolic Activation: NONE, Method: STANDARD PLATE
  mutagenic call: inactive; negative
Strain/Indicator: TA1538, Metabolic Activation: NONE, Method: STANDARD PLATE
  mutagenic call: active; positive
Strain/Indicator: TA7001, Metabolic Activation: NONE, Method: PREINCUBATION
  mutagenic call: active; positive
Strain/Indicator: TA7002, Metabolic Activation: NONE, Method: PREINCUBATION
  mutagenic call: active; positive
Strain/Indicator: TA7003, Metabolic Activation: NONE, Method: PREINCUBATION
  mutagenic call: active; positive
Strain/Indicator: TA7004, Metabolic Activation: NONE, Method: PREINCUBATION
  mutagenic call: active; positive
Strain/Indicator: TA7005, Metabolic Activation: NONE, Method: PREINCUBATION
  mutagenic call: active; positive
Strain/Indicator: TA7006, Metabolic Activation: NONE, Method: PREINCUBATION
  mutagenic call: active; positive

## C1=C\CC/C=C\CC/1.Nc1ccccc1.[Cl-].[Rh]
Strain/Indicator: TA2410, Metabolic Activation: NONE, Method: STANDARD PLATE
  mutagenic call: inactive; negative

## COc1cccc([N+](=O)[O-])c1
[1]
  mutagenic call: inactive; negative
Strain/Indicator: TA98, Metabolic Activation: RAT, LIVER, S-9, KANECHLOR 500, Method: PREINCUBATION
  mutagenic call: inactive; negative
Strain/Indicator: TA98, Method: PREINCUBATION
  mutagenic call: inactive; negative
[3]
  mutagenic call: inactive; negative
Strain/Indicator: TA100, Metabolic Activation: RAT, LIVER, S-9, KANECHLOR 500, Method: PREINCUBATION
  mutagenic call: inactive; negative
Strain/Indicator: TA100, Method: PREINCUBATION
  mutagenic call: inactive; negative
Strain/Indicator: TA1535, Metabolic Activation: NONE, Method: PREINCUBATION
  mutagenic call: inactive; negative
Strain/Indicator: TA1535, Method: PREINCUBATION
  mutagenic call: inactive; negative
Strain/Indicator: TA1537, Metabolic Activation: NONE, Method: PREINCUBATION
  mutagenic call: inactive; negative
Strain/Indicator: TA1537, Method: PREINCUBATION
  mutagenic call: inactive; negative
Strain/Indicator: TA1538, Metabolic Activation: NONE, Method: PREINCUBATION
  mutagenic call: inactive; negative
Strain/Indicator: TA1538, Method: PREINCUBATION
  mutagenic call: inactive; negative

## Cn1c(N)nc2ccccc21
[4]
  mutagenic call: active; positive
[5]
  mutagenic call: active; positive

## COC(=O)c1oc(N(OC(C)=O)C(C)=O)c(-c2ccccc2)c1-c1ccccc1
[1]
  mutagenic call: inactive; negative
Strain/Indicator: TA98, Metabolic Activation: RAT, LIVER, S-9, AROCLOR, Method: PREINCUBATION
  mutagenic call: inactive; negative
[3]
  mutagenic call: inactive; negative
Strain/Indicator: TA100, Metabolic Activation: RAT, LIVER, S-9, AROCLOR, Method: PREINCUBATION
  mutagenic call: inactive; negative

## OC1C=C2c3ccc4ccccc4c3-c3cccc(c32)C1O (stereo unspecified)
Strain/Indicator: TA97A, Metabolic Activation: NONE, Method: PREINCUBATION
  mutagenic call: inactive; negative
Strain/Indicator: TA97A, Metabolic Activation: RAT, LIVER, S-9, AROCLOR 1254, Method: PREINCUBATION
  mutagenic call: active; positive
[1]
  mutagenic call: inactive; negative
[4]
  mutagenic call: active; positive
[3]
  mutagenic call: active; positive
[5]
  mutagenic call: active; positive

## Nc1cnc2c(c1)nc1ccccn12
[2]
  mutagenic call: inactive; negative
Strain/Indicator: TA98, Metabolic Activation: RAT, LIVER, CYTOSOL, AROCLOR 1254, Method: STANDARD PLATE
  mutagenic call: inactive; negative
Strain/Indicator: TA98, Metabolic Activation: RAT, LIVER, MICROSOMES, AROCLOR 1254, Method: STANDARD PLATE
  mutagenic call: inactive; negative
Strain/Indicator: TA98, Metabolic Activation: RAT, LIVER, S-9, AROCLOR 1254, Method: STANDARD PLATE
  mutagenic call: active; positive

## OCCS
[3]
  mutagenic call: inactive; negative
